Reference: patent US12049439B2 (OrsoBio, Inc., priority 2018, dated 2024)

Tested on: PC-3 cells
Experiment: PC-3 Oxygen Rate Consumption (OCR) Assay
Format: cell-based
Settings: Homo sapiens, 0.05 h, medium with 2% FBS, OCR at 3-min post-injection normalized to % increase over DMSO-treated cells, concentration for half-maximal OCR increase, read-out: EC50-PC3-OCR-FBS-3min
Procedure, shortened: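 PC-3 cells seeded a day before, equilibrated 1 h in XF medium with 10 mM glucose, 1 mM pyruvate, 2% FBS, non-CO2 at 37 °C. Compound injected after basal OCR reads; OCR at 3 min post-injection normalized as % increase over DMSO, EC50 = half-maximal increase; six replicates.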

SMILES: O=C(NC12CC(C(F)(F)F)(C1)C2)c1cc(C(F)(F)F)ccc1NS(=O)(=O)C1COC1 [Example 73, 2-(oxetane-3-sulfonamido)-5-(trifluoromethyl)-N-(3-(trifluoromethyl)bicyclo[1.1.1]pentan-1-yl)benzamide]
- EC50: 2.62 µM

SMILES: O=C(NC12CC(Cl)(C1)C2)c1cc(C(F)(F)F)ccc1NS(=O)(=O)C1COC1 [Example 74, N-(3-chlorobicyclo[1.1.1]pentan-1-yl)-2-(oxetane-3-sulfonamido)-5-(trifluoromethyl)benzamide]
- EC50: 6.17 µM

SMILES: N#CC12CCC(NC(=O)c3cc(C(F)(F)F)ccc3NS(=O)(=O)C3COC3)(CC1)CC2 [Example 75, N-(4-cyanobicyclo[2.2.2]octan-1-yl)-2-(oxetane-3-sulfonamido)-5-(trifluoromethyl)benzamide]
- EC50: 25.9 µM

SMILES: Cc1ncc(S(=O)(=O)Nc2cc(C(F)(F)F)ccc2C(=O)NC23CCC(C#N)(CC2)CC3)s1 [Example 76, N-(4-cyanobicyclo[2.2.2]octan-1-yl)-2-((2-methylthiazole)-5-sulfonamido)-4-(trifluoromethyl)benzamide]
- EC50: 9.19 µM

SMILES: CC(C)(C)S(=O)(=O)Nc1cc(C#N)ccc1C(=O)NC12CCC(C#N)(CC1)CC2 [Example 77, 4-cyano-N-(4-cyanobicyclo[2.2.2]octan-1-yl)-2-((1,1-dimethylethyl)sulfonamido)benzamide]
- EC50: 8.65 µM

SMILES: CC(C)S(=O)(=O)Nc1cc(C#N)ccc1C(=O)NC12CCC(C#N)(CC1)CC2 [Example 78, 4-cyano-N-(4-cyanobicyclo[2.2.2]octan-1-yl)-2-((1-methylethyl)sulfonamido)benzamide]
- EC50: 39.8 µM

SMILES: CS(=O)(=O)Nc1cc(F)ccc1C(=O)NC12CC(Cl)(C1)C2 [Example 79, N-(3-chlorobicyclo[1.1.1]pentan-1-yl)-4-fluoro-2-(methylsulfonamido)benzamide]
- EC50: 21.2 µM

SMILES: CS(=O)(=O)Nc1ccc(C(F)(F)F)cc1C(=O)NC12CC(Cl)(C1)C2 [Example 80, N-(3-chlorobicyclo[1.1.1]pentan-1-yl)-2-(methylsulfonamido)-5-(trifluoromethyl)benzamide]
- EC50: 2.54 µM

SMILES: CS(=O)(=O)Nc1ccc(C(F)(F)F)cc1C(=O)NC12CCC(C(F)F)(CC1)CC2 [Example 81, N-(4-(difluoromethyl)bicyclo[2.2.2]octan-1-yl)-2-(methylsulfonamido)-5-(trifluoromethyl)benzamide]
- EC50: 2.39 µM

SMILES: CS(=O)(=O)Nc1ccc(C(F)(F)F)cc1C(=O)NC12CCC(F)(CC1)CC2 [Example 82, N-(4-fluorobicyclo[2.2.2]octan-1-yl)-2-(methylsulfonamido)-5-(trifluoromethyl)benzamide]
- EC50: 6.32 µM

SMILES: CC(C)(C)S(=O)(=O)Nc1ccc(Cl)cc1C(=O)NC12CC(c3ccccc3)(C1)C2 [Example 83, 5-chloro-2-((1,1-dimethylethyl)sulfonamido)-N-(3-phenylbicyclo[1.1.1]pentan-1-yl)benzamide]
- EC50: 5.43 µM

SMILES: CC(C)(C)S(=O)(=O)Nc1ccc(Cl)cc1C(=O)NC12CC(C(F)(F)F)(C1)C2 [Example 84, 5-chloro-2-((1,1-dimethylethyl)sulfonamido)-N-(3-(trifluoromethyl)bicyclo[1.1.1]pentan-1-yl)benzamide]
- EC50: 1.04 µM

SMILES: CC(C)(C)S(=O)(=O)Nc1ccc(Cl)cc1C(=O)NC12CC(C#N)(C1)C2 [Example 85, 5-chloro-N-(3-cyanobicyclo[1.1.1]pentan-1-yl)-2-((1,1-dimethylethyl)sulfonamido)benzamide]
- EC50: 12.5 µM

SMILES: CS(=O)(=O)c1ccc(S(=O)(=O)Nc2ccc(C(F)(F)F)cc2C(=O)NC23CC(C(F)(F)F)(C2)C3)cc1 [Example 86, 2-((4-(methylsulfonyl)phenyl)sulfonamido)-5-(trifluoromethyl)-N-(3-(trifluoromethyl)bicyclo[1.1.1]pentan-1-yl)benzamide]
- EC50: 8.27 µM

SMILES: CS(=O)(=O)c1ccc(S(=O)(=O)Nc2ccc(C(F)(F)F)cc2C(=O)NC23CC(c4ccccc4)(C2)C3)cc1 [Example 87, 2-((4-(methylsulfonyl)phenyl)sulfonamido)-N-(3-phenylbicyclo[1.1.1]pentan-1-yl)-5-(trifluoromethyl)benzamide]
- EC50: 3.28 µM

SMILES: COc1ccc(C(=O)NC23CC(C(F)(F)F)(C2)C3)c(NS(=O)(=O)c2ccc(S(C)(=O)=O)cc2)c1 [Example 88, 4-methoxy-2-((4-(methylsulfonyl)phenyl)sulfonamido)-N-(3-(trifluoromethyl)bicyclo[1.1.1]pentan-1-yl)benzamide]
- EC50: 26.3 µM

SMILES: COc1ccc(C(=O)NC23CC(c4ccccc4)(C2)C3)c(NS(=O)(=O)c2ccc(S(C)(=O)=O)cc2)c1 [Example 89, 4-methoxy-2-((4-(methylsulfonyl)phenyl)sulfonamido)-N-(3-phenylbicyclo[1.1.1]pentan-1-yl)benzamide]
- EC50: 26.7 µM

SMILES: CS(=O)(=O)c1ccc(S(=O)(=O)Nc2ccc(Cl)cc2C(=O)NC23CC(C(F)(F)F)(C2)C3)cc1 [Example 90, 5-chloro-2-((4-(methylsulfonyl)phenyl)sulfonamido)-N-(3-(trifluoromethyl)bicyclo[1.1.1]pentan-1-yl)benzamide]
- EC50: 2.67 µM

SMILES: CS(=O)(=O)c1ccc(S(=O)(=O)Nc2ccc(Cl)cc2C(=O)NC23CC(c4ccccc4)(C2)C3)cc1 [Example 91, 5-chloro-2-((4-(methylsulfonyl)phenyl)sulfonamido)-N-(3-phenylbicyclo[1.1.1]pentan-1-yl)benzamide]
- EC50: 2.97 µM

SMILES: CS(=O)(=O)c1ccc(S(=O)(=O)Nc2cc(Cl)c(Cl)cc2C(=O)NC23CC(C(F)(F)F)(C2)C3)cc1 [Example 92, 4,5-dichloro-2-((4-(methylsulfonyl)phenyl)sulfonamido)-N-(3-(trifluoromethyl)bicyclo[1.1.1]pentan-1-yl)benzamide]
- EC50: 8.09 µM

SMILES: CS(=O)(=O)c1ccc(S(=O)(=O)Nc2cc(Cl)c(Cl)cc2C(=O)NC23CC(c4ccccc4)(C2)C3)cc1 [Example 93, 4,5-dichloro-2-((4-(methylsulfonyl)phenyl)sulfonamido)-N-(3-phenylbicyclo[1.1.1]pentan-1-yl)benzamide]
- EC50: 2.64 µM

SMILES: CC(C)(C)S(=O)(=O)Nc1ccc(Br)cc1C(=O)NC12CC(c3ccccc3)(C1)C2 [Example 94, 5-bromo-2-((1,1-dimethylethyl)sulfonamido)-N-(3-phenylbicyclo[1.1.1]pentan-1-yl)benzamide]
- EC50: 6.16 µM

SMILES: CC(C)(C)S(=O)(=O)Nc1ccc(Br)cc1C(=O)NC12CC(C(F)(F)F)(C1)C2 [Example 95, 5-bromo-2-((1,1-dimethylethyl)sulfonamido)-N-(3-(trifluoromethyl)bicyclo[1.1.1]pentan-1-yl)benzamide]
- EC50: 1.12 µM

SMILES: CC(C)(C)S(=O)(=O)Nc1ccc(C#N)cc1C(=O)NC12CC(c3ccccc3)(C1)C2 [Example 96, 5-cyano-2-((1,1-dimethylethyl)sulfonamido)-N-(3-phenylbicyclo[1.1.1]pentan-1-yl)benzamide]
- EC50: 1.28 µM

SMILES: CC(C)(C)S(=O)(=O)Nc1ccc(C#N)cc1C(=O)NC12CC(C(F)(F)F)(C1)C2 [Example 97, 5-cyano-2-((1,1-dimethylethyl)sulfonamido)-N-(3-(trifluoromethyl)bicyclo[1.1.1]pentan-1-yl)benzamide]
- EC50: 1.43 µM

SMILES: CC(C)(C)S(=O)(=O)Nc1cc(C#N)ccc1C(=O)NC12CC(c3ccccc3)(C1)C2 [Example 98, 4-cyano-2-((1,1-dimethylethyl)sulfonamido)-N-(3-phenylbicyclo[1.1.1]pentan-1-yl)benzamide]
- EC50: 1.98 µM

SMILES: CC(C)(C)S(=O)(=O)Nc1cc(C#N)ccc1C(=O)NC12CC(C(F)(F)F)(C1)C2 [Example 99, 4-cyano-2-((1,1-dimethylethyl)sulfonamido)-N-(3-(trifluoromethyl)bicyclo[1.1.1]pentan-1-yl)benzamide]
- EC50: 1.18 µM

SMILES: CC(C)(C)S(=O)(=O)Nc1ccc(-c2ncccn2)cc1C(=O)NC12CC(C(F)(F)F)(C1)C2 [Example 100, 2-((1,1-dimethylethyl)sulfonamido)-5-(pyrimidin-2-yl)-N-(3-(trifluoromethyl)bicyclo[1.1.1]pentan-1-yl)benzamide]
- EC50: 14.2 µM

SMILES: O=C(NC12CC(C(F)(F)F)(C1)C2)c1ccc(C(F)(F)F)cc1NS(=O)(=O)c1ccc(-c2ncccn2)cc1 [Example 101, 2-((4-(pyrimidin-2-yl)phenyl)sulfonamido)-4-(trifluoromethyl)-N-(3-(trifluoromethyl)bicyclo[1.1.1]pentan-1-yl)benzamide]
- EC50: 1.18 µM

SMILES: CN(C)c1ccc(S(=O)(=O)Nc2cc(C(F)(F)F)ccc2C(=O)NC23CC(C(F)(F)F)(C2)C3)cc1 [Example 102, 2-((4-(dimethylamino)phenyl)sulfonamido)-4-(trifluoromethyl)-N-(3-(trifluoromethyl)bicyclo[1.1.1]pentan-1-yl)benzamide]
- EC50: 2.42 µM

SMILES: CS(=O)(=O)Oc1ccc(S(=O)(=O)Nc2cc(C(F)(F)F)ccc2C(=O)NC23CC(C(F)(F)F)(C2)C3)cc1 [Example 103, 4-(N-(5-(trifluoromethyl)-2-((3-(trifluoromethyl)bicyclo[1.1.1]pentan-1-yl)carbamoyl)phenyl)sulfamoyl)phenyl methanesulfonate]
- EC50: 1.88 µM

SMILES: CCCS(=O)(=O)Nc1ccc(C#N)cc1C(=O)NC12CCC(C#N)(CC1)CC2 [Example 104, 5-cyano-N-(4-cyanobicyclo[2.2.2]octan-1-yl)-2-(propylsulfonamido)benzamide]
- EC50: 37.5 µM

SMILES: CS(=O)(=O)Nc1ccc(C(F)(F)F)cc1C(=O)NC12CCC(C#N)(CC1)CC2 [Example 105, N-(4-cyanobicyclo[2.2.2]octan-1-yl)-2-(methylsulfonamido)-5-(trifluoromethyl)benzamide]
- EC50: 22.9 µM

SMILES: O=C(NC12CC(C(F)(F)F)(C1)C2)c1ccc(C(F)(F)F)cc1NS(=O)(=O)c1ccc(N2CCS(=O)(=O)CC2)cc1 [Example 106, 2-((4-(1,1-dioxidothiomorpholino)phenyl)sulfonamido)-4-(trifluoromethyl)-N-(3-(trifluoromethyl)bicyclo[1.1.1]pentan-1-yl)benzamide]
- EC50: 18.8 µM
